According to PMC6930555, “Design, Synthesis, and Structural Characterization of Novel Diazaphenothiazines with 1,2,3-Triazole Substituents as Promising Antiproliferative Agents” (Molecules, 2019):

Each molecule was assayed on lung cancer A549 (assay: WST-1 cell proliferation assay, A549). Conditions: A549, WST-1, 72 h; read-out: Anticancer Activity IC50 A549.
Assay type: cell-based, human
Description: (§1) Encouraged by our previous promising results in the field of antiproliferative activity of dipyridothiazines as well as by the good anticancer activity of the 1,2,3-triazoles, we decided to combine the biological potentials of dipyridothiazines and triazole moieties, hoping to obtain compounds with better activity. The antiproliferative activity of all 20 new 10-substituted 1,2,3-triazole derivatives of dipyridothiazines was tested in vitro against cancer cell lines: glioblastoma SNB-19, colorectal carcinoma Caco-2, lung cancer A549, and breast cancer MDA-MB231 using the WST-1 assay. Normal human fibroblasts NHDF were used as a control.
(§2) All dipyridothiazines with 1,2,3-triazole substituents (1–4)b–f were evaluated for their anticancer activity using four cultured cell lines: SNB-19 (human glioblastoma, DSMZ—German Collection of Microorganisms and Cell Cultures, Braunschweig, Germany), Caco-2 (human colon adenocarcinoma, DSMZ—German Collection of Microorganisms and Cell Cultures, Braunschweig, Germany), A549 (human lung carcinoma, ATCC, Manassas, VA, USA) and MDA-MB231 (human breast adenocarcinoma, ATCC, Manassas, VA, USA), and NHDF (human dermal fibroblast cell line, ATCC, Manassas, VA, USA. The cultured cells were kept at 37 °C and 5% CO2. The cells were seeded (1 × 10^4 cells/well/100 µL DMEM supplemented with 10% FCS and streptomycin and penicillin) using 96-well plates (Corning). The cells were counted in a hemocytometer (Burker’s chamber) using a phase contrast Olympus IX50 microscope equipped with Sony SSC-DC58 AP camera and Olympus DP10 digital camera.
(§3) Antiproliferative effect of the obtained compounds on the cancer cells was determined using the cell proliferation reagent WST-1 assay (Roche Diagnostics, Mannheim, Germany). This assay is based on the viable cell’s ability to cleave the bright red-colored tetrazolium salt (2-(4-iodophenyl)-3-(4-nitrophenyl)-5-(2,4-disulfophenyl)-2H-tetrazolium, monosodium salt) to dark red soluble formazan by cellular enzymes. An increase in the amount of formazan dye formed correlates to the number of metabolically active cells in the culture. The formazan dye produced by metabolically active cells is quantified by a scanning ELISA reader by measuring the absorbance of the dye solution at appropriate wavelengths. The examined cells were exposed to the tested compounds for 72 h at various concentrations between 0.1 μg/mL and 100 μg/mL (prepared initially at concentration of 1 mg/mL in DMSO). The cells were incubated with WST-1 (10 μL) for 1 h and the absorbance of the samples against a background control was measured at 450 nm using a microplate reader with a reference wavelength at 600 nm. The results are expressed as means of at least two independent experiments performed in triplicate.

| SMILES | IC50 |
| --- | --- |
| N.N.[Cl][Pt][Cl] [Cisplatin, reference compound] | 0.6 µM |

Same assay, conditions: Homo sapiens; A549, WST-1, 72 h; read-out: Anticancer Activity IC50 A549

| SMILES | IC50 |
| --- | --- |
| c1ccc(Cn2cc(CN3c4cccnc4Sc4cccnc43)nn2)cc1 [1b, 10-[(1-Benzyl-1H-1,2,3-triazol-4-yl)-methyl]-1,6-diazaphenothiazine] | > 100 µM |
| Fc1ccc(Cn2cc(CN3c4cccnc4Sc4cccnc43)nn2)cc1 [1c, 10-[(1-(4-Fluorobenzyl)-1H-1,2,3-triazol-4-yl)methyl]-1,6-diazaphenothiazine] | 29.1 µM |
| N#Cc1ccc(Cn2cc(CN3c4cccnc4Sc4cccnc43)nn2)cc1 [1e, 10-[(1-(4-Cyanobenzyl)-1H-1,2,3-triazol-4-yl)methyl]-1,6-diazaphenothiazine] | 1.79 µM |
| c1ccc(SCn2cc(CN3c4cccnc4Sc4cccnc43)nn2)cc1 [1f, 10-[(1-Phenylthiomethyl-1H-1,2,3-triazolo-4-ylo)methyl]-1,6-diazaphenothiazine] | > 100 µM |
| c1ccc(Cn2cc(CN3c4cnccc4Sc4cccnc43)nn2)cc1 [2b, 10-[(1-Benzyl-1H-1,2,3-triazol-4-yl)-methyl]-1,8-diazaphenothiazine] | 77.4 µM |
| Fc1ccc(Cn2cc(CN3c4cnccc4Sc4cccnc43)nn2)cc1 [2c, 10-[(1-(4-Fluorobenzyl)-1H-1,2,3-triazol-4-yl)methyl]-1,8-diazaphenothiazine] | 60.2 µM |
| Clc1ccc(Cn2cc(CN3c4cnccc4Sc4cccnc43)nn2)cc1 [2d, 10-[(1-(4-Chlorobenzyl)-1H-1,2,3-triazol-4-yl)methyl]-1,8-diazaphenothiazine] | 1.82 µM |
| N#Cc1ccc(Cn2cc(CN3c4cnccc4Sc4cccnc43)nn2)cc1 [2e, 10-[(1-(4-Cyanobenzyl)-1H-1,2,3-triazol-4-yl)methyl]-1,8-diazaphenothiazine] | 63.8 µM |
| c1ccc(SCn2cc(CN3c4cnccc4Sc4cccnc43)nn2)cc1 [2f, 10-[(1-Phenylthiomethyl-1H-1,2,3-triazolo-4-ylo)methyl]-1,8-diazaphenothiazine] | 46.8 µM |

What follows are molecules tested on colorectal carcinoma Caco-2 (assay: WST-1 cell proliferation assay, Caco-2). Conditions: Homo sapiens; Caco-2, WST-1, 72 h; read-out: Anticancer Activity IC50 Caco-2.
Assay type: cell-based
Description: (§4) The antiproliferative activity of all 20 new 10-substituted 1,2,3-triazole derivatives of dipyridothiazines was tested in vitro against cancer cell lines: glioblastoma SNB-19, colorectal carcinoma Caco-2, lung cancer A549, and breast cancer MDA-MB231 using the WST-1 assay. Normal human fibroblasts NHDF were used as a control.
as §2, §3

| SMILES | IC50 |
| --- | --- |
| c1ccc(Cn2cc(CN3c4cccnc4Sc4cccnc43)nn2)cc1 [1b, 10-[(1-Benzyl-1H-1,2,3-triazol-4-yl)-methyl]-1,6-diazaphenothiazine] | 19.9 ± 2.71 µM |
| Fc1ccc(Cn2cc(CN3c4cccnc4Sc4cccnc43)nn2)cc1 [1c, 10-[(1-(4-Fluorobenzyl)-1H-1,2,3-triazol-4-yl)methyl]-1,6-diazaphenothiazine] | 8.1 µM |
| N#Cc1ccc(Cn2cc(CN3c4cccnc4Sc4cccnc43)nn2)cc1 [1e, 10-[(1-(4-Cyanobenzyl)-1H-1,2,3-triazol-4-yl)methyl]-1,6-diazaphenothiazine] | 79.7 µM |
| c1ccc(SCn2cc(CN3c4cccnc4Sc4cccnc43)nn2)cc1 [1f, 10-[(1-Phenylthiomethyl-1H-1,2,3-triazolo-4-ylo)methyl]-1,6-diazaphenothiazine] | > 100 µM |
| c1ccc(Cn2cc(CN3c4cnccc4Sc4cccnc43)nn2)cc1 [2b, 10-[(1-Benzyl-1H-1,2,3-triazol-4-yl)-methyl]-1,8-diazaphenothiazine] | > 100 µM |
| Fc1ccc(Cn2cc(CN3c4cnccc4Sc4cccnc43)nn2)cc1 [2c, 10-[(1-(4-Fluorobenzyl)-1H-1,2,3-triazol-4-yl)methyl]-1,8-diazaphenothiazine] | 43.6 µM |
| Clc1ccc(Cn2cc(CN3c4cnccc4Sc4cccnc43)nn2)cc1 [2d, 10-[(1-(4-Chlorobenzyl)-1H-1,2,3-triazol-4-yl)methyl]-1,8-diazaphenothiazine] | 11.4 µM |
| N#Cc1ccc(Cn2cc(CN3c4cnccc4Sc4cccnc43)nn2)cc1 [2e, 10-[(1-(4-Cyanobenzyl)-1H-1,2,3-triazol-4-yl)methyl]-1,8-diazaphenothiazine] | 34.4 µM |
| c1ccc(SCn2cc(CN3c4cnccc4Sc4cccnc43)nn2)cc1 [2f, 10-[(1-Phenylthiomethyl-1H-1,2,3-triazolo-4-ylo)methyl]-1,8-diazaphenothiazine] | 32.5 µM |

The molecules below were run on glioblastoma SNB-19 (assay: WST-1 cell proliferation assay, SNB-19). Conditions: Homo sapiens; SNB-19, WST-1, 72 h; read-out: Anticancer Activity IC50 SNB-19.
Assay type: cell-based, human
Description: as §1, §2, §3

| SMILES | IC50 |
| --- | --- |
| c1ccc(Cn2cc(CN3c4cccnc4Sc4cccnc43)nn2)cc1 [1b, 10-[(1-Benzyl-1H-1,2,3-triazol-4-yl)-methyl]-1,6-diazaphenothiazine] | 69.2 µM |
| Fc1ccc(Cn2cc(CN3c4cccnc4Sc4cccnc43)nn2)cc1 [1c, 10-[(1-(4-Fluorobenzyl)-1H-1,2,3-triazol-4-yl)methyl]-1,6-diazaphenothiazine] | 5.72 µM |
| N#Cc1ccc(Cn2cc(CN3c4cccnc4Sc4cccnc43)nn2)cc1 [1e, 10-[(1-(4-Cyanobenzyl)-1H-1,2,3-triazol-4-yl)methyl]-1,6-diazaphenothiazine] | 9.65 µM |
| c1ccc(SCn2cc(CN3c4cccnc4Sc4cccnc43)nn2)cc1 [1f, 10-[(1-Phenylthiomethyl-1H-1,2,3-triazolo-4-ylo)methyl]-1,6-diazaphenothiazine] | > 100 µM |
| c1ccc(Cn2cc(CN3c4cnccc4Sc4cccnc43)nn2)cc1 [2b, 10-[(1-Benzyl-1H-1,2,3-triazol-4-yl)-methyl]-1,8-diazaphenothiazine] | 41.9 µM |
| Fc1ccc(Cn2cc(CN3c4cnccc4Sc4cccnc43)nn2)cc1 [2c, 10-[(1-(4-Fluorobenzyl)-1H-1,2,3-triazol-4-yl)methyl]-1,8-diazaphenothiazine] | 55.2 µM |
| Clc1ccc(Cn2cc(CN3c4cnccc4Sc4cccnc43)nn2)cc1 [2d, 10-[(1-(4-Chlorobenzyl)-1H-1,2,3-triazol-4-yl)methyl]-1,8-diazaphenothiazine] | 59.9 µM |
| N#Cc1ccc(Cn2cc(CN3c4cnccc4Sc4cccnc43)nn2)cc1 [2e, 10-[(1-(4-Cyanobenzyl)-1H-1,2,3-triazol-4-yl)methyl]-1,8-diazaphenothiazine] | 10.6 µM |
| c1ccc(SCn2cc(CN3c4cnccc4Sc4cccnc43)nn2)cc1 [2f, 10-[(1-Phenylthiomethyl-1H-1,2,3-triazolo-4-ylo)methyl]-1,8-diazaphenothiazine] | 56.3 µM |

Same assay, conditions: SNB-19, WST-1, 72 h; read-out: Anticancer Activity IC50 SNB-19

| SMILES | IC50 |
| --- | --- |
| N.N.[Cl][Pt][Cl] [Cisplatin, reference compound] | 3.73 µM |

These molecules were tested on breast cancer MDA-MB231 (assay: WST-1 cell proliferation assay, MDA-MB231). Conditions: Homo sapiens, MDA-MB-231; MDA-MB231, WST-1, 72 h; read-out: Anticancer Activity IC50 MDA-MB231.
Assay type: cell-based, human
Description: as §1, §2, §3

| SMILES | IC50 |
| --- | --- |
| c1ccc(Cn2cc(CN3c4cccnc4Sc4cccnc43)nn2)cc1 [1b, 10-[(1-Benzyl-1H-1,2,3-triazol-4-yl)-methyl]-1,6-diazaphenothiazine] | 13.7 µM |
| Fc1ccc(Cn2cc(CN3c4cccnc4Sc4cccnc43)nn2)cc1 [1c, 10-[(1-(4-Fluorobenzyl)-1H-1,2,3-triazol-4-yl)methyl]-1,6-diazaphenothiazine] | 7.82 µM |
| N#Cc1ccc(Cn2cc(CN3c4cccnc4Sc4cccnc43)nn2)cc1 [1e, 10-[(1-(4-Cyanobenzyl)-1H-1,2,3-triazol-4-yl)methyl]-1,6-diazaphenothiazine] | 25.8 µM |
| c1ccc(SCn2cc(CN3c4cccnc4Sc4cccnc43)nn2)cc1 [1f, 10-[(1-Phenylthiomethyl-1H-1,2,3-triazolo-4-ylo)methyl]-1,6-diazaphenothiazine] | 68.7 µM |
| c1ccc(Cn2cc(CN3c4cnccc4Sc4cccnc43)nn2)cc1 [2b, 10-[(1-Benzyl-1H-1,2,3-triazol-4-yl)-methyl]-1,8-diazaphenothiazine] | 56.3 µM |
| Fc1ccc(Cn2cc(CN3c4cnccc4Sc4cccnc43)nn2)cc1 [2c, 10-[(1-(4-Fluorobenzyl)-1H-1,2,3-triazol-4-yl)methyl]-1,8-diazaphenothiazine] | 9.21 µM |
| Clc1ccc(Cn2cc(CN3c4cnccc4Sc4cccnc43)nn2)cc1 [2d, 10-[(1-(4-Chlorobenzyl)-1H-1,2,3-triazol-4-yl)methyl]-1,8-diazaphenothiazine] | 4.71 µM |
| N#Cc1ccc(Cn2cc(CN3c4cnccc4Sc4cccnc43)nn2)cc1 [2e, 10-[(1-(4-Cyanobenzyl)-1H-1,2,3-triazol-4-yl)methyl]-1,8-diazaphenothiazine] | 12 µM |
| c1ccc(SCn2cc(CN3c4cnccc4Sc4cccnc43)nn2)cc1 [2f, 10-[(1-Phenylthiomethyl-1H-1,2,3-triazolo-4-ylo)methyl]-1,8-diazaphenothiazine] | 12 µM |

Same assay, conditions: MDA-MB231, WST-1, 72 h; read-out: Anticancer Activity IC50 MDA-MB231

| SMILES | IC50 |
| --- | --- |
| N.N.[Cl][Pt][Cl] [Cisplatin, reference compound] | 3.13 µM |

The molecules below were run on SNB-19, Caco-2, A549 and MDA-MB231 cancer cell lines (assay: WST-1 assay, summary over the cancer cell line panel). Conditions: Homo sapiens; span over SNB-19 and MDA-MB231; read-out: IC50 in relation to SNB-19 and MDA-MB231 cell lines.
Assay type: cell-based, human
Description: as §4, §2, §3

| SMILES | IC50 |
| --- | --- |
| Fc1ccc(Cn2cc(CN3c4cccnc4Sc4cccnc43)nn2)cc1 [1c, 10-[(1-(4-Fluorobenzyl)-1H-1,2,3-triazol-4-yl)methyl]-1,6-diazaphenothiazine] | 5.72 to 7.82 µM |

The molecules below were run on normal human fibroblasts NHDF (assay: WST-1 cytotoxicity assay, normal fibroblasts NHDF). Conditions: normal human fibroblasts NHDF, WST-1, 72 h.
Assay type: cell-based
Description: as §1, §2, §3

| SMILES | IC50 |
| --- | --- |
| c1ccc(Cn2cc(CN3c4cccnc4Sc4cccnc43)nn2)cc1 [1b, 10-[(1-Benzyl-1H-1,2,3-triazol-4-yl)-methyl]-1,6-diazaphenothiazine] | > 100 µM |
| Fc1ccc(Cn2cc(CN3c4cccnc4Sc4cccnc43)nn2)cc1 [1c, 10-[(1-(4-Fluorobenzyl)-1H-1,2,3-triazol-4-yl)methyl]-1,6-diazaphenothiazine] | > 100 µM |
| N#Cc1ccc(Cn2cc(CN3c4cccnc4Sc4cccnc43)nn2)cc1 [1e, 10-[(1-(4-Cyanobenzyl)-1H-1,2,3-triazol-4-yl)methyl]-1,6-diazaphenothiazine] | > 100 µM |
| c1ccc(SCn2cc(CN3c4cccnc4Sc4cccnc43)nn2)cc1 [1f, 10-[(1-Phenylthiomethyl-1H-1,2,3-triazolo-4-ylo)methyl]-1,6-diazaphenothiazine] | > 100 µM |
| c1ccc(Cn2cc(CN3c4cnccc4Sc4cccnc43)nn2)cc1 [2b, 10-[(1-Benzyl-1H-1,2,3-triazol-4-yl)-methyl]-1,8-diazaphenothiazine] | > 100 µM |
| Fc1ccc(Cn2cc(CN3c4cnccc4Sc4cccnc43)nn2)cc1 [2c, 10-[(1-(4-Fluorobenzyl)-1H-1,2,3-triazol-4-yl)methyl]-1,8-diazaphenothiazine] | > 100 µM |
| Clc1ccc(Cn2cc(CN3c4cnccc4Sc4cccnc43)nn2)cc1 [2d, 10-[(1-(4-Chlorobenzyl)-1H-1,2,3-triazol-4-yl)methyl]-1,8-diazaphenothiazine] | 43 µM |
| N#Cc1ccc(Cn2cc(CN3c4cnccc4Sc4cccnc43)nn2)cc1 [2e, 10-[(1-(4-Cyanobenzyl)-1H-1,2,3-triazol-4-yl)methyl]-1,8-diazaphenothiazine] | > 100 µM |
| c1ccc(SCn2cc(CN3c4cnccc4Sc4cccnc43)nn2)cc1 [2f, 10-[(1-Phenylthiomethyl-1H-1,2,3-triazolo-4-ylo)methyl]-1,8-diazaphenothiazine] | > 100 µM |
| N.N.[Cl][Pt][Cl] [Cisplatin, reference compound] | 63.9 µM |
